Consider 20 compounds from US20240208945A1, “6-CARBAMATE SUBSTITUTED HETEROARYL RING DERIVATIVES” (MEDSHINE DISCOVERY INC., priority 2021, published 2024).

Structures can show the parent of a compound that is named as a salt.

For data set [1], the target named is binding of KRAS(G12C) to SOS1 (Homo sapiens (Human), UniProt Q07889). The data set is described as follows: KRAS(G12C) and SOS1 binding assay (HTRF). The note with it: 25° C., 60 minutes. The source says: The small molecular compound binds to the catalytic site of SOS1, thus inhibiting the binding of SOS1 to KRAS (G12C). When the binding of fluorescently labeled SOS1 protein to fluorescently labeled KRAS (G12C) protein is inhibited, the emitted fluorescence changes. The ability of small molecules to prevent the binding of SOS1 to KRAS (G12C) can be tested by detecting changes in fluorescence. A homogeneous time-resolved fluorescence (HTRF) binding assay was used to detect the ability of the compounds of the present disclosure to inhibit the binding of SOS1 to KRAS (G12C).
KRAS (G12C) protein was expressed and purified by Wuhan AtaGenix Biotechnology Co., Ltd., SOS1 exchange domin (564-1049) protein (Human recombinant) was purchased from Cytoskeleton, Mab Anti 6HIS-XL665 and Mab Anti GST-Eu cryptate were purchased from Cisbio. Multimode microplate reader Nivo5 was purchased from PerkinElmer.
1× buffer preparation (ready-to-use): Hepes: 5 mM; NaCl: 150 mM; EDTA: 10 mM; Igepal: 0.0025%; KF: 100 mM; DTT: 1 mM; BSA: […];
The test compounds were 5-fold diluted with DMSO using a multi-channel pipette to the 8th concentration, i.e., diluted from 1 mM to 0.064 μM.
The test compound was diluted by gradient with 1× buffer to a working solution with 2% DMSO. 5 μL/well of the working solution was added to corresponding wells, and the corresponding concentration gradient was 20 μM to […]. Duplicate experiment was set. The working solution was centrifuged at 1000 rpm for 1 minute.
A mixed working solution of KRAS(G12C) (200 nM) and Mab Anti GST-Eu cryptate (1 ng/μL) was prepared with 1× buffer, and the mixed working solution was incubated at 25° C. for 5 minutes, and 2.5 μL/well of the mixed working solution was added to the corresponding wells.
A mixed working solution of SOS1 (80 nM) and Mab Anti 6HIS-XL665 ([…]) was prepared with 1× buffer, and 2.5 μL/well of the mixed working solution was added to the corresponding wells. 2.5 μL of Mab Anti 6HIS-XL665 ([…]) diluent was added to blank wells. At this time, the final concentration gradient of the compound was diluted from 10 μM to 0.64 nM, KRAS(G12C) ([…]), MAb Anti GST-Eu cryptate (0.25 ng/μL), SOS1 (20 nM), Mab Anti 6HIS-XL665 (2 g/μL), the reaction system was placed at 25° C. for 60 minutes. After the reaction was completed, the multimode microplate reader was used to read HTRF.
Using the equation (Sample−Min)/(Max−Min)×100% to convert the raw data into inhibition rate, the IC50 value might be obtained by curve fitting with four parameters (obtained by “log (inhibitor) vs. response—Variable slope” mode in GraphPad Prism).
For orientation: Time-resolved FRET reads energy transfer from a long-lived donor to a nearby acceptor.

The subject of another data set is p-ERK in DLD-1 cells. The data set is described as follows: p-ERK inhibitory activity test in DLD-1 cells (HTRF Phospho-ERK1/2 kit). The note with it: Homo sapiens, 1 hour incubation. The format is cell-based. As for the experimental part:
DLD-1 cells were purchased from Nanjing Cobioer; 1640 medium was purchased from Biological Industries; fetal bovine serum was purchased from Biosera; Advanced Phospho-ERK1/2 (THR202/TYR204) KIT was purchased from Cisbio.
DLD-1 cells were seeded in a transparent 96-well cell culture plate, with 80 μL of cell suspension per well and 8000 DLD-1 cells per well. The cell plate was incubated in a carbon dioxide incubator at 37° C. overnight; • the test compound was diluted to 2 mM with 100% DMSO as the first concentration, and then 5-fold diluted to the 8th concentration with a pipette, that is, diluted from 2 mM to 0.026 μM. 2 μL of compound was added to 78 μL of cell starvation medium. After mixing well, 20 μL of compound solution was taken and added to the corresponding cell plate wells, and the cell plate was put back to the carbon dioxide incubator to continue to incubate for 1 hour; at this time, the concentration of the compound was from 10 μM to 0.128 nM, and the concentration of DMSO was 0.5%; • after the incubation was completed, the cell supernatant was discarded, and 50 μL of cell lysate was added to each well, and incubated at room temperature for 30 minutes with shaking; • Phospho-ERK1/2 Eu Cryptate antibody and Phospho-ERK1/2 d2 antibody were 20-fold diluted using Detection buffer; • 16 μL of cell lysate supernatant per well was put into a new 384 white microplate, then 2 μL of Phospho-ERK1/2 Eu Cryptate antibody diluent and 2 μL of Phospho-ERK1/2 d2 antibody diluent were added thereto and incubated at room temperature for 4 hours; • after the incubation was completed, a multimode microplate reader was used to read HTRF excitation: 320 nm, emission: 615 nm, 665 nm.
Using the equation (Sample−Min)/(Max−Min)*100% to convert the raw data into inhibition rate, the IC50 value might be obtained by curve fitting with four parameters (obtained by “log (inhibitor) vs. response—Variable slope” mode in GraphPad Prism). • Max well: Positive control well reading is 1× lysate • Min well: Negative control well reading is 0.5% DMSO cell well cell lysate

Data set [2] can be described thus: Pharmacokinetic evaluation in Balb/c mice (IV and oral). The data set is classed as in vivo. As to conditions: male, mouse, plasma; for Cmax: IV 10 mg/kg and oral 50 mg/kg study, read-out: Peak concentration Cmax; for bioavailability / clearance / half-life / Vd: IV 10 mg/kg; for bioavailability / AUC(0-t): PO 50 mg/kg; for bioavailability: read-out: Bioavailability F; for clearance: read-out: Clearance rate CL; for half-life: read-out: Half life T1/2 (IV) (converted); for Vd: read-out: Volume of distribution at steady state Vdss; for AUC(0-t): read-out: Area under drug-time curve AUC0-last PO. As to the method: Balb/c mice (male, Beijing Vital River Laboratory Animal Technology Co., Ltd.)
The pharmacokinetic characteristics of the compound in rodents after intravenous injection and oral administration were tested according to the standard protocol. In the experiment, the candidate compound was formulated into clear solutions, and a single intravenous injection and oral administration were given to mice. The vehicle for intravenous injection and oral administration was a mixed vehicle composed of 5% dimethyl sulfoxide, 5% solutol, and 90% water. In this project, four male Balb/c mice were used, and two mice were administered intravenously at a dose of 10 mg/kg. Plasma samples were collected at 0.083, 0.25, 0.5, 1, 2, 4, 8, and 24 hours after administration. The other two mice were administered orally by gavage at a dose of 50 mg/kg. Plasma samples were collected at 0.25, 0.5, 1, 2, 4, 6, 8, 12, and 24 hours after administration. Blood samples were placed on ice after collection and centrifuged to separate plasma within 1 hour (centrifugation conditions: 6000 g, 3 minutes, 2 to 8° C.). Plasma samples were stored in a −80° C. refrigerator before analysis. The plasma concentration was quantitatively analyzed by LC-MS/MS analysis method, and the pharmacokinetic parameters were calculated, such as peak concentration (Cmax), clearance rate (CL), half-life (T1/2), volume of distribution at steady state (Vdss), area under drug-time curve (AUC0-last), bioavailability (F).

Chain of binding of KRAS(G12C) to SOS1 (Q07889 564-1049, stated change not applied): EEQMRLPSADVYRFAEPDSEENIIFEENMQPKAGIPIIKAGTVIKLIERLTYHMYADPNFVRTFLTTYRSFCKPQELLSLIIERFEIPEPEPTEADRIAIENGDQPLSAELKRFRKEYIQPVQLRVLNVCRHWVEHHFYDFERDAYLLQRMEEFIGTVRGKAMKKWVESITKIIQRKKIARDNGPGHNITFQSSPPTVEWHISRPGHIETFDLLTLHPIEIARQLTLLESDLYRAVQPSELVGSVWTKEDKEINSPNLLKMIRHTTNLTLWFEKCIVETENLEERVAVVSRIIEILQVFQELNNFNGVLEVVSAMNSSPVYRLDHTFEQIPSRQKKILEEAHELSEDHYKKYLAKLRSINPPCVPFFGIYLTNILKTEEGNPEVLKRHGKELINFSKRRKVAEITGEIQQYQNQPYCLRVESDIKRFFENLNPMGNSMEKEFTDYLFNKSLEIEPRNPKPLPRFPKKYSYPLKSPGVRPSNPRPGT

Broadly, the IC50 is the concentration that gives 50% inhibition. The low end stands for greater potency in that assay, the high end for weaker potency in that assay. As for `COc1cc2nc(C)nc(N[C@H](C)c3cc(N)cc(C(F)(F)F)c3)c2cc1OC(=O)N1CCN(C)CC1` [Compound 2], the results for the IC50 (in data set [1]; in the data set with p-ERK in DLD-1 cells) were 110 nM and 122 nM, respectively.

`COc1cc2nc(C)nc(N[C@H](C)c3cc(N)cc(C(F)(F)F)c3)c2cc1OC(=O)N1CCC2(CCOC2)CC1` [Compound 7] yielded an IC50 in data set [1] of 92.8 nM.

As for `COc1cc2nc(C)nc(N[C@H](C)c3cc(N)cc(C(F)(F)F)c3)c2cc1OC(=O)N1CCN(C2COC2)CC1` [Compound 9], in data set [1], the IC50 was 83.6 nM.

`COc1cc2nc(C)nc(N[C@H](C)c3cc(N)cc(C(F)(F)F)c3)c2cc1OC(=O)N1CCN2CCCC2C1` (stereo partly drawn) [Compound 10] displayed an IC50 in the data set on p-ERK in DLD-1 cells of 86.2 nM.

The compound `COc1cc2nc(C)nc(N[C@H](C)c3cc(N)cc(C(F)(F)F)c3)c2cc1OC(=O)N1CCC2(CC1)CO[C@H](C)[C@@H]2N` [Compound 11] registered a 50% inhibitory concentration (IC50) in data set [1] of 78.6 nM.

Regarding `COc1cc2nc(C)nc(N[C@H](C)c3cc(N)cc(C(F)(F)F)c3)c2cc1OC(=O)N1CCCN(C)CC1C` (stereo partly drawn) [Compound 13], the IC50 in data set [1] is 70.4 nM; with p-ERK in DLD-1 cells, 282 nM.

In turn, `COc1cc2nc(C)nc(N[C@H](C)c3cccc(C(F)(F)C(C)(C)O)c3F)c2cc1OC(=O)N1CCN(C2COC2)CC12CC2` [Compound 24] came in with an IC50 in data set [1] of 47.9 nM.

The compound `COc1cc2nc(C)nc(N[C@H](C)c3cccc(C(F)F)c3F)c2cc1OC(=O)N1CCNCC12CC2` [Compound 25] yielded an IC50 in data set [1] of 86.1 nM. Compared with the last compound, the IC50 is about 1.8-fold higher.

On to `COc1cc2nc(C)nc(N[C@H](C)c3cccc(C(F)F)c3F)c2cc1OC(=O)N1CCN(C2COC2)CC12CC2` [Compound 26], for which the IC50 in data set [1] worked out at 65.9 nM; with p-ERK in DLD-1 cells, 283 nM.

Regarding `COc1cc2nc(C)nc(N[C@H](C)c3cc(N)cc(C(F)(F)F)c3F)c2cc1OC(=O)N1CCN(C)CC1C` (stereo partly drawn) [Compound 27], the IC50 in data set [1] turned out to be 40.6 nM; in the data set with p-ERK in DLD-1 cells it was 112 nM.

Take `COc1cc2nc(C)nc(N[C@H](C)c3cc(N)cc(C(F)(F)F)c3)c2cc1OC(=O)N1CCN(C)CC1C` (stereo partly drawn) [Hydrochloride of compound 4]: the IC50 in data set [1] amounted to 71.1 nM; with p-ERK in DLD-1 cells, 113 nM.

As to `CCN1CCN(C(=O)Oc2cc3c(N[C@H](C)c4cc(N)cc(C(F)(F)F)c4)nc(C)nc3cc2OC)CC1` [Hydrochloride of compound 5], the IC50 was found to be 77.3 nM in data set [1] and 219 nM with p-ERK in DLD-1 cells.

`COc1cc2nc(C)nc(N[C@H](C)c3cc(N)cc(C(F)(F)F)c3)c2cc1OC(=O)N1CCNCC1` [Hydrochloride of compound 6] gave an IC50 in data set [1] of 87.6 nM.

As to `COc1cc2nc(C)nc(N[C@H](C)c3cc(N)cc(C(F)(F)F)c3)c2cc1OC(=O)N1CCC(N(C)C)CC1` [Hydrochloride of compound 8], in data set [1], the half-inhibitory concentration (IC50) stood at 73.7 nM.

Consider `COc1cc2nc(C)nc(N[C@H](C)c3cccc(C(F)(F)C4CCCO4)c3F)c2cc1OC(=O)N1CCN(C)CC1C` (stereo partly drawn) [Hydrochloride of compound 15], for which the IC50 in data set [1] came out at 149 nM. This IC50 lies about 2-fold higher than the previous one.

Take `COc1cc2nc(C)nc(N[C@H](C)c3cccc(C(F)(F)CO)c3)c2cc1OC(=O)N1CCN(C)CC1C` (stereo partly drawn) [Hydrochloride of compound 16]: the results for the IC50 (in data set [1]; in the data set on p-ERK in DLD-1 cells) were 59.6 nM and 222 nM, respectively.

Regarding `COc1cc2nc(C)nc(N[C@H](C)c3cccc(C(F)(F)CO)c3F)c2cc1OC(=O)N1CCN(C)CC1C` (stereo partly drawn) [Hydrochloride of compound 18], the results for the IC50 (in data set [1]; in the data set with p-ERK in DLD-1 cells) were 23.4 nM and 243 nM, respectively.

`COc1cc2nc(C)nc(N[C@H](C)c3cccc(C(F)F)c3F)c2cc1OC(=O)N1CCN(C)CC1C` (stereo partly drawn) [Hydrochloride of compound 19] came in with a 50% inhibitory concentration (IC50) in data set [1] of 105 nM.

As usually defined, the bioavailability is the share of a dose that reaches the circulation, judged against a reference dose that is usually intravenous. Regarding `COc1cc2nc(C)nc(N[C@H](C)c3cccc(C(F)(F)C(C)(C)O)c3F)c2cc1OC(=O)N1CCN(C)C[C@@H]1C` [Hydrochloride of compound 28], in data set [1], the IC50 was 14.5 nM. This compound also showed an IC50 with p-ERK in DLD-1 cells of 91.5 nM. In data set [2], the Cmax amounted to 4.59 µM, the bioavailability amounted to 98.8%, the clearance is 36.7 mL/min/kg and the half-life is 6.01 h. Moreover, in data set [2], the Vd is 11.5 L/kg and the AUC(0-t) was 37.5 µM·h.

`COc1cc2nc(C)nc(N[C@H](C)c3cccc(C(F)(F)C(C)(C)O)c3F)c2cc1OC(=O)N1CCN(C)C[C@H]1C` [Hydrochloride of compound 29]: the IC50 in data set [1] was 14.7 nM. Also, the IC50 with p-ERK in DLD-1 cells stood at 135 nM. Also, in data set [2], the Cmax worked out at 10.9 µM, the bioavailability stood at 91.2%, the clearance is 18.7 mL/min/kg and the half-life is 3.46 h. In addition, in data set [2], the Vd was 4.15 L/kg and the AUC(0-t) was 74.6 µM·h.
